Data: US8624040B2, “Substituted hydroxamic acids and uses thereof” (Millennium Pharmaceuticals, Inc., priority 2009, dated 2014)

Molecular target: T1, purified human HDAC6 (Homo sapiens, UniProt Q9UBN7)
T1 construct: purchased BPS Bioscience 5006
T1 sequence (Q9UBN7 1-1215): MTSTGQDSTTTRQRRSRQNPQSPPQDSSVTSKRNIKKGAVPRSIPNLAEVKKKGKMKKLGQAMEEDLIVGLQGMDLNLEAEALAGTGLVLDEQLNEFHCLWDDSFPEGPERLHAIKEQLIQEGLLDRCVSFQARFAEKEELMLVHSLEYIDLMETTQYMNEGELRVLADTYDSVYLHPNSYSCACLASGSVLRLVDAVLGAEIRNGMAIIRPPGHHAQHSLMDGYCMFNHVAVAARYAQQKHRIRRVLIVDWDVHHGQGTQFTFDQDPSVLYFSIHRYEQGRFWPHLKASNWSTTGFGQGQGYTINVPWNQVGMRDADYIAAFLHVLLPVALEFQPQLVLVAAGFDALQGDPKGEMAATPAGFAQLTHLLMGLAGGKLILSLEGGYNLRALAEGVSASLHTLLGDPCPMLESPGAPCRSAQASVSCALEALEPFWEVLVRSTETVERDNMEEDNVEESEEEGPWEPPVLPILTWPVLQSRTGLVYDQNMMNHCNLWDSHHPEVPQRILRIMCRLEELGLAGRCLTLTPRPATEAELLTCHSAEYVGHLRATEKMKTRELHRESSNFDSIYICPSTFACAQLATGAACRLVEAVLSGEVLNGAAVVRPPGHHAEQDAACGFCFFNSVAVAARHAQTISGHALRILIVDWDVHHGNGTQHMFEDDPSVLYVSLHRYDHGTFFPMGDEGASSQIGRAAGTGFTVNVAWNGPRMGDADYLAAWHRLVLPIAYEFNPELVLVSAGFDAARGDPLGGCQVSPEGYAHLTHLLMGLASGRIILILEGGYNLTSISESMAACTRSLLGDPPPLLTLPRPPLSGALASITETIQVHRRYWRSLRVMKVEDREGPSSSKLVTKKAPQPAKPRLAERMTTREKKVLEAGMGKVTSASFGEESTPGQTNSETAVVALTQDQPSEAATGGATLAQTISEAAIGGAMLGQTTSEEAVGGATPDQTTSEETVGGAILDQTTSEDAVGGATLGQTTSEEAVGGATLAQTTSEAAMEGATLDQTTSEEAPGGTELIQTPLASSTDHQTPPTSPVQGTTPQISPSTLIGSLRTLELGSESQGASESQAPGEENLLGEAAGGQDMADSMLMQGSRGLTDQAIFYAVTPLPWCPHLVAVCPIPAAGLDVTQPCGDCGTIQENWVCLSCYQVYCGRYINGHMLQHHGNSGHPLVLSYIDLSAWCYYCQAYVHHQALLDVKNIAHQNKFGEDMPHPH
Assay: HDAC6 Enzyme Assay
Format: biochemical
Settings: enzyme inhibition, substrate Ac-Arg-Gly-Lys(Ac)-AMC, 1 hour at 30° C.
Procedure, shortened: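 Purified human HDAC6 incubated 1 h at 30 °C with Ac-Arg-Gly-Lys(Ac)-AMC peptide and compound; reaction stopped with trichostatin A, then trypsin releases AMC, read by fluorescence (Ex 340/Em 460 nm). IC50 from concentration-response curves relative to DMSO controls.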

IC50 [nM]	SMILES
> 1000	CC1(C)CN(C(=O)c2sc3ccccc3c2Cl)Cc2cc(C(=O)NO)sc21 [Compound 192, 5-[(3-chloro-1-benzothien-2-yl)carbonyl]-N-hydroxy-7,7-dimethyl-4,5,6,7-tetrahydrothieno[3,2-c]pyridine-2-carboxamide]
< 50	Cc1c(C(=O)NO)sc2c1CN(C(=O)c1ccc(Cl)cc1)CC2 [Compound 193, 5-(4-chlorobenzoyl)-N-hydroxy-3-methyl-4,5,6,7-tetrahydrothieno[3,2-c]pyridine-2-carboxamide]
< 50	Cc1c(C(=O)NO)sc2c1CN(C(=O)c1cccn1C)CC2 [Compound 194, N-hydroxy-3-methyl-5-[(1-methyl-1H-pyrrol-2-yl)carbonyl]-4,5,6,7-tetrahydrothieno[3,2-c]pyridine-2-carboxamide]
> 1000	CC1(C)CN(C(=O)c2cc3ccccc3s2)Cc2cc(C(=O)NO)sc21 [Compound 195, 5-(1-benzothien-2-ylcarbonyl)-N-hydroxy-7,7-dimethyl-4,5,6,7-tetrahydrothieno[3,2-c]pyridine-2-carboxamide]
> 1000	CC1(C)CN(C(=O)Nc2ccc(C#N)cc2)Cc2cc(C(=O)NO)sc21 [Compound 196, N^5-(4-cyanophenyl)-N2-hydroxy-7,7-dimethyl-6,7-dihydrothieno[3,2-c]pyridine-2,5(4H)-dicarboxamide]
> 1000	CC1(C)CN(C(=O)c2ccc3c(c2)OCCCO3)Cc2cc(C(=O)NO)sc21 [Compound 198, 5-(3,4-dihydro-2H-1,5-benzodioxepin-7-ylcarbonyl)-N-hydroxy-7,7-dimethyl-4,5,6,7-tetrahydrothieno[3,2-c]pyridine-2-carboxamide]
50 to 100	Cc1nc(-c2ccccn2)sc1C(=O)N1CCc2sc(C(=O)NO)c(C)c2C1 [Compound 199, N-hydroxy-3-methyl-5-[(4-methyl-2-pyridin-2-yl-1,3-thiazol-5-yl)carbonyl]-4,5,6,7-tetrahydrothieno[3,2-c]pyridine-2-carboxamide]
< 50	Cc1c(C(=O)NO)sc2c1CN(C(=O)c1cc3ccccc3s1)CC2 [Compound 205, 5-(1-benzothien-2-ylcarbonyl)-N-hydroxy-3-methyl-4,5,6,7-tetrahydrothieno[3,2-c]pyridine-2-carboxamide]
< 50	COc1ccc(C(=O)N2CCc3sc(C(=O)NO)c(C)c3C2)cc1 [Compound 209, N-hydroxy-5-(4-methoxybenzoyl)-3-methyl-4,5,6,7-tetrahydrothieno[3,2-c]pyridine-2-carboxamide]
> 1000	Cn1cccc1C(=O)N1Cc2cc(C(=O)NO)sc2C(C)(C)C1 [Compound 210, N-hydroxy-7,7-dimethyl-5-[(1-methyl-1H-pyrrol-2-yl)carbonyl]-4,5,6,7-tetrahydrothieno[3,2-c]pyridine-2-carboxamide]
< 50	CC(C)(C)OC(=O)N1CCc2sc(C(=O)NO)cc2C1 [Compound 212, tert-butyl 2-[(hydroxyamino)carbonyl]-6,7-dihydrothieno[3,2-c]pyridine-5(4H)-carboxylate]
> 1000	COc1ccc(C(=O)N2Cc3cc(C(=O)NO)sc3C(C)(C)C2)cc1 [Compound 214, N-hydroxy-5-(4-methoxybenzoyl)-7,7-dimethyl-4,5,6,7-tetrahydrothieno[3,2-c]pyridine-2-carboxamide]
50 to 100	Cc1c(C(=O)NO)sc2c1CN(C(=O)c1cc3ccccc3o1)CC2 [Compound 216, 5-(1-benzofuran-2-ylcarbonyl)-N-hydroxy-3-methyl-4,5,6,7-tetrahydrothieno[3,2-c]pyridine-2-carboxamide]
> 1000	CC1(C)CN(C(=O)c2ccc(Cl)cc2)Cc2cc(C(=O)NO)sc21 [Compound 218, 5-(4-chlorobenzoyl)-N-hydroxy-7,7-dimethyl-4,5,6,7-tetrahydrothieno[3,2-c]pyridine-2-carboxamide]
> 1000	CC1(C)CN(C(=O)c2ccccn2)Cc2cc(C(=O)NO)sc21 [Compound 220, N-hydroxy-7,7-dimethyl-5-(pyridin-2-ylcarbonyl)-4,5,6,7-tetrahydrothieno[3,2-c]pyridine-2-carboxamide]
50 to 100	Cc1c(C(=O)NO)sc2c1CN(C(=O)c1sc3ccccc3c1Cl)CC2 [Compound 221, 5-[(3-chloro-1-benzothien-2-yl)carbonyl]-N-hydroxy-3-methyl-4,5,6,7-tetrahydrothieno[3,2-c]pyridine-2-carboxamide]
> 1000	Cc1nc(C(=O)N2Cc3cc(C(=O)NO)sc3C(C)(C)C2)cs1 [Compound 222, N-hydroxy-7,7-dimethyl-5-[(2-methyl-1,3-thiazol-4-yl)carbonyl]-4,5,6,7-tetrahydrothieno[3,2-c]pyridine-2-carboxamide]

More lines, now with the values behind:

SMILES	IC50 [nM]
O=C(NO)c1cc2c(s1)CN(C(=O)Nc1ccc(I)cc1)CC2 [Compound 163, N^2-hydroxy-N^6-(4-iodophenyl)-4,7-dihydrothieno[2,3-c]pyridine-2,6(5H)-dicarboxamide]	< 50
CCCCc1ccc(NC(=O)N2CCc3cc(C(=O)NO)sc3C2)cc1 [Compound 169, N^6-(4-butylphenyl)-N^2-hydroxy-4,7-dihydrothieno[2,3-c]pyridine-2,6(5H)-dicarboxamide]	< 50
O=C(NO)c1cc2c(s1)CN(C(=O)c1ccc(C(F)(F)F)cc1)CC2 [Compound 171, N-hydroxy-6-(4-(trifluoromethyl)benzoyl)-4,5,6,7-tetrahydrothieno[2,3-c]pyridine-2-carboxamide]	< 50
Cc1cc(C)c(NC(=O)N2CCc3cc(C(=O)NO)sc3C2)c(C)c1 [Compound 176, N^2-hydroxy-N^6-mesityl-4,7-dihydrothieno[2,3-c]pyridine-2,6(5H)-dicarboxamide]	< 50
Cc1noc(C)c1C(=O)N1CCc2cc(C(=O)NO)sc2C1 [Compound 177, 6-[(3,5-dimethylisoxazol-4-yl)carbonyl]-N-hydroxy-4,5,6,7-tetrahydrothieno[2,3-c]pyridine-2-carboxamide]	< 50
Cc1cc(C(=O)N2CCc3cc(C(=O)NO)sc3C2)c(C)o1 [Compound 178, 6-(2,5-dimethyl-3-furoyl)-N-hydroxy-4,5,6,7-tetrahydrothieno[2,3-c]pyridine-2-carboxamide]	50 to 100
O=C(NO)c1cc2c(s1)CN(C(=O)c1ccc3ccccc3n1)CC2 [Compound 179, N-hydroxy-6-(quinolin-2-ylcarbonyl)-4,5,6,7-tetrahydrothieno[2,3-c]pyridine-2-carboxamide]	< 50
O=C(NO)c1cc2c(s1)CN(C(=O)c1ccc(F)cc1)CC2 [Compound 182, 6-(4-fluorobenzoyl)-N-hydroxy-4,5,6,7-tetrahydrothieno[2,3-c]pyridine-2-carboxamide]	50 to 100
Cc1onc(-c2ccc(F)cc2)c1C(=O)N1CCc2cc(C(=O)NO)sc2C1 [Compound 184, 6-{[3-(4-fluorophenyl)-5-methylisoxazol-4-yl]carbonyl}-N-hydroxy-4,5,6,7-tetrahydrothieno[2,3-c]pyridine-2-carboxamide]	< 50
CCc1cc(C(=O)N2CCc3cc(C(=O)NO)sc3C2)n(C)n1 [Compound 186, 6-[(3-ethyl-1-methyl-1H-pyrazol-5-yl)carbonyl]-N-hydroxy-4,5,6,7-tetrahydrothieno[2,3-c]pyridine-2-carboxamide]	< 50
Cc1c(C(=O)N2CCc3cc(C(=O)NO)sc3C2)cnn1-c1ccccc1 [Compound 187, N-hydroxy-6-[(5-methyl-1-phenyl-1H-pyrazol-4-yl)carbonyl]-4,5,6,7-tetrahydrothieno[2,3-c]pyridine-2-carboxamide]	< 50
CC(C)(C)c1ccc(CC(=O)N2CCc3cc(C(=O)NO)sc3C2)cc1 [Compound 188, 6-[(4-tert-butylphenyl)acetyl]-N-hydroxy-4,5,6,7-tetrahydrothieno[2,3-c]pyridine-2-carboxamide]	< 50
CC(C)(C)c1ccc(C(=O)N2Cc3cc(C(=O)NO)sc3C(C)(C)C2)cc1 [Compound 190, 5-(4-tert-butylbenzoyl)-N-hydroxy-7,7-dimethyl-4,5,6,7-tetrahydrothieno[3,2-c]pyridine-2-carboxamide]	> 1000
